≈ marks a conversion by molar mass, not a printed value.
How the values were obtained:
S. mitis = assay: microbe, parasite or virus in culture; format: cell-based, Streptococcus mitis; conditions: peptides 0–50 μM, 16 h, 37 °C, microaerophilic, A620 nm, three separate experiments
Description: (§1) Streptococcus mutans Clarke (strain designation NCTC 10449), Pseudomonas aeruginosa (Schroeter) Migula (strain designation PAO1), Fusobacterium nucleatum, subspecies nucleatum (strain VPI 4355), and Porphyromonas gingivalis (strain 2561) were purchased from ATCC (LGC Standards Srl, Milan, Italy). Streptococcus mitis, Streptococcus oralis, and Streptococcus sanguinis were obtained from clinical isolates and characterized by morphological, biochemical, and molecular typing. S. mutans, S. mitis, S. oralis, and S. sanguinis were maintained in Brain Heart Infusion (BHI) broth or agar under microaerophilic conditions. P. aeruginosa was maintained in trypticase soy (TS) agar or broth. F. nucleatum was maintained in TS agar or broth with defibrinated sheep blood under anaerobic conditions. P. gingivalis was maintained in ATCC Medium 2722 supplemented with TS broth or agar under anaerobic conditions. Before the experiments, bacterial cultures were inoculated in fresh media (dilution 1:100) and grown for 16 h at 37 °C.
(§2) The antimicrobial activities of the tested peptides were assessed through the determination of the minimum inhibitory concentration (MIC) standardized by the Clinical and Laboratory Standards Institute. Bacterial inocula were diluted in 10 mL of MHB […]. The concentration of the bacteria was adjusted to 0.5 McFarland standard, and the bacteria were dispensed in 96-well microtiter plates (final bacterial concentration: 1 × 10^4 CFU/well). Peptides were dissolved in sterile water (stock concentration: 2 mM) and added at final concentrations ranging from 0 to 50 µM. Plates were incubated at 37 °C for 16 h. At the end of incubation, bacterial growth was recorded using a microplate reader (Varioskan Lux Reader; Thermo Fisher Scientific, Milan, Italy) by quantifying the adsorption at 620 nm. Cultures were then opportunely diluted and seeded on agar plates. Bacterial cultures inoculated with the highest final concentration of the vehicle (sterile water) or chlorhexidine hydrochloride salt (CHX, concentration range: 0.05 to 500 μg/mL; Merck, Milan, Italy) were included as controls in each test. Experiments were performed in triplicate.

S. sanguinis = assay: microbe, parasite or virus in culture; format: cell-based, Streptococcus sanguinis; conditions: peptides 0–50 μM, 16 h, 37 °C, microaerophilic, A620 nm, three separate experiments
Description: as §1, §2

F. nucleatum = assay: microbe, parasite or virus in culture; format: cell-based, Fusobacterium nucleatum; conditions: peptides 0–50 μM, 16 h, 37 °C, anaerobic, A620 nm, three separate experiments
Description: as §1, §2

[1] = tested on: S. mutans bacteriocin production against S. oralis; assay: Bacteriocin overlay assay, S. mutans spotted on S. oralis; format: cell-based, Streptococcus mutans; conditions: CSP1 20 μM alone vs vehicle, 16 h, 37 °C, microaerophilic
Method: (§3) During the formation of complex biofilm such as dental plaque, the ability of S. mutans to compete with other commensal species determines the success of the cariogenesis process. S. mutans uses antibacterial peptides, namely, bacteriocins, to overcome and subvert the composition of dental microbiota. We investigated the production of bacteriocins using the overlay assay. Overnight cultures of S. mitis, S. oralis, S. sanguinis, P. aeruginosa, F. nucleatum, or P. gingivalis were diluted 1:100 in BHI or TS broth and incubated at 37 °C until they reached an OD620 of 0.3. Cultures were added with agar (BD Difco^TM Agar) at the final concentration of 1.5% w/v and transferred in plates. Overnight cultures of S. mutans were diluted 1:100 in BHI and added with peptides (20 μM) or the vehicle with or without CSP1. Culture media were supplemented with agar to reach the final concentration of 0.7% w/v. The solutions were spotted on the surface of agar plates prepared as described above. The plates were kept on the benchtop for 30 min, allowing the agar containing S. mutans to solidify, and then incubated at 37 °C for 16 h under microaerophilic or anaerobic conditions, as required.
(§4) Spots (10 for each experimental group) were acquired and analyzed using NIH Image J software (version 1.53t August 2022, https://imagej.nih.gov/ij/index.html; accessed on 7 September 2022). The appearance of a clear area on the plate (bacterial growth inhibition) was evaluated as indicative of bacteriocin activity. The diameters of the area were measured in a blinded fashion.

[2] = tested on: S. mutans bacteriocin production against S. sanguinis; assay: Bacteriocin overlay assay, S. mutans spotted on S. sanguinis; format: cell-based, Streptococcus mutans; conditions: CSP1 20 μM alone vs vehicle, 16 h, 37 °C, microaerophilic
Method: as §3, §4

[3] = tested on: S. mutans bacteriocin production against F. nucleatum; assay: Bacteriocin overlay assay, S. mutans spotted on F. nucleatum; format: cell-based, Streptococcus mutans; conditions: CSP1 20 μM, 16 h, 37 °C, anaerobic
Method: as §3, with “The plates were kept on the benchtop for 30 min, allowing the agar containing S. mutans to solidify, and then incubated at 37 °C for 16 h under microaerophilic or anaerobic conditions, as required.” left out
as §4

[4] = tested on: S. mutans bacteriocin production against P. aeruginosa; assay: Bacteriocin overlay assay, S. mutans spotted on P. aeruginosa; format: cell-based, Streptococcus mutans; conditions: CSP1 20 μM, microaerophilic, experimental control
Method: as §3, with “The plates were kept on the benchtop for 30 min, allowing the agar containing S. mutans to solidify, and then incubated at 37 °C for 16 h under microaerophilic or anaerobic conditions, as required.” left out
as §4

comE gene = assay: qRT-PCR, comE gene expression; format: cell-based, Streptococcus mutans; conditions: CSP1 20 μM, planktonic, 8 h, qPCR
Method: (§5) S. mutans was cultured in BHI supplemented with peptides or the vehicle. Cultures were centrifuged, and total RNA was isolated and purified from the bacterial pellets using the GRS Total RNA Kit—Bacteria (GK16.0100; GRISP Research Solution, Porto, Portugal), following the manufacturer’s instructions. Purified RNA was subjected to DNase I treatment to remove contaminating DNA. The RNA yield and purity were assessed by measuring the absorbance, and only samples with a ratio of 260/280 nm in the 1.8–2 range were used. cDNA was generated using the cDNA RT kit with an RNAse inhibitor (Applied Biosystems; Monza, Milan). Quantitative PCR (qRT-PCR) was performed using SYBR green mixture (iScript One Step RT-PCR kit; Bio-Rad, Segrate, Milan) to determine the transcript levels of genes using the oligonucleotides listed in Table 3. The gyrA gene served as the housekeeping gene.

comC gene = assay: qRT-PCR, comC gene expression; format: cell-based, Streptococcus mutans; conditions: CSP1 20 μM, 8 h, qPCR
Method: as §5

CC[C@H](C)[C@H](NC(=O)[C@H](Cc1ccccc1)NC(=O)[C@H](CC(=O)O)NC(=O)[C@H](CCCNC(=N)N)NC(=O)[C@H](Cc1ccccc1)NC(=O)[C@H](Cc1ccccc1)NC(=O)[C@H](CCCCN)NC(=O)[C@H](CO)NC(=O)[C@H](CC(C)C)NC(=O)[C@H](CCCNC(=N)N)NC(=O)[C@H](CCSC)NC(=O)[C@@H](N)CCC(=O)O)C(=O)N[C@@H](CC(C)C)C(=O)N[C@@H](CCC(N)=O)C(=O)N[C@@H](CCCNC(=N)N)C(=O)N[C@@H](CCCCN)C(=O)N[C@@H](CCCCN)C(=O)O [CSP1]
Minimum inhibitory concentration (MIC), S. mitis (S. mitis): 25 µM (≈ 56.1 µg/mL) | Minimum inhibitory concentration (MIC), S. sanguinis (S. sanguinis): 21 µM (≈ 47.1 µg/mL) | Minimum inhibitory concentration (MIC), F. nucleatum (F. nucleatum): >50 µM | Growth inhibition of co-cultured S. oralis by S. mutans stimulated with peptide (diameter of clear area) [1]: significantly inhibited the growth | Growth inhibition of co-cultured S. sanguinis by S. mutans stimulated with peptide (diameter of clear area) [2]: significantly inhibited the growth | Growth inhibition of F. nucleatum by S. mutans stimulated with peptide [3]: inhibited the growth | Replication of P. aeruginosa in presence of S. mutans stimulated with peptide [4]: not affected | Expression of comE in S. mutans (comE gene): increased the expression | Expression of comC in S. mutans (comC gene): no effects

— PMC9785397, “Exploiting Conserved Quorum Sensing Signals in Streptococcus mutans and Streptococcus pneumoniae” (Microorganisms, 2022)
